What was measured:
human BACE1 = human BACE1 (Homo sapiens, UniProt P56817); test: Fluorescent kinetic assay, BACE-1 (Example 114); assay type: biochemical; conditions: 10 nM human BACE1, 25 μM substrate WABC-6, 50 mM Na-Acetate pH 4.5, room temperature; read-out: BACE-1 (IC50 μM)
Protocol: Evaluation of BACE-1 Binding Affinity of Test Compounds
Fluorescent Kinetic Assays
Dilution and mixing steps: total reaction volume: 100 μL
100 μM substrate dilution in 1×PBS was prepared, and
Fluorescence Readings: Readings at λex 320 nm and εem 420 nm are taken every 40 sec for 30 min at room temperature and the linear slope for substrate cleavage rate (vi) determined.

human BACE1, sequence (P56817 46-501): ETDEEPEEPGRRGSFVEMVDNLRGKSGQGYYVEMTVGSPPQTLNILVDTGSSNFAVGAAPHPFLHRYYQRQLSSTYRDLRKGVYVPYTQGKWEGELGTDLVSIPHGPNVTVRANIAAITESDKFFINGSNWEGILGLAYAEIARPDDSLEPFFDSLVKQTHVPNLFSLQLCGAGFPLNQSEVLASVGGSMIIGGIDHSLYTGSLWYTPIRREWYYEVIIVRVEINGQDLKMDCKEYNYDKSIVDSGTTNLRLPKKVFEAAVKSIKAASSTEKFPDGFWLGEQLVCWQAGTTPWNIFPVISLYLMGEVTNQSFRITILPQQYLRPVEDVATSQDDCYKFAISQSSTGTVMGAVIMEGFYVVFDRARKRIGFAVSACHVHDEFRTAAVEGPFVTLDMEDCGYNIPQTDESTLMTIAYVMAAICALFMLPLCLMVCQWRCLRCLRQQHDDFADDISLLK

| SMILES | IC50 (human BACE1) [µM] | melting point [°C] |
| --- | --- | --- |
| CCc1cc(C2(c3cccc(-c4cccnc4)c3)N=C(N)N(C)C2=O)cc(CC)n1 (stereo not shown) [Example 90] | 0.01 to 0.1 | 152 to 157 |
| CCc1cc(C2(c3cccc(-c4cc(F)ccc4F)c3)N=C(N)N(C)C2=O)cc(CC)n1 (stereo not shown) [Example 92] | 0.11 to 1 | 107 to 112 |
| CCc1cc(C2(c3ccc(F)c(-c4cncc(F)c4)c3)N=C(N)N(C)C2=O)cc(CC)n1 (stereo not shown) [Example 104, 2-Amino-5-(2,6-diethyl-pyridin-4-yl)-5-[4-fluoro-3-(5-fluoropyridin-3-yl)-phenyl]-3-methyl-3,5-dihydro-imidazol-4-one] | 0.01 to 0.1 | 155 to 157 |
| CN1C(=O)C(c2ccc(OC(F)F)cc2)(c2cccnc2)N=C1N (stereo not shown) [Example 111, 2-amino-5-[4-(difluoromethoxy)phenyl]-3-methyl-5-pyridin-3-yl-3,5-dihydro-4H-imidazol-4-one] | > 1 | 173 to 175 |
| CN1C(=O)C(c2ccncc2)(c2ccc(OC(F)F)cc2)N=C1N (stereo not shown) [Example 112, 2-amino-5-[4-(difluoromethoxy)phenyl]-3-methyl-5-pyridin-4-yl-3,5-dihydro-4H-imidazol-4-one] | > 1 | 193 to 195 |

— US7452885B2, “Amino-5-(6-membered)heteroarylimidazolone compounds and the use thereof for β-secretase modulation” (Wyeth, priority 2005, dated 2008)
